Data on seven compounds can be found in publication PMC11497205, “Gold(I) Complexes Based on Nonsteroidal Anti-Inflammatory Derivatives as Multi-Target Drugs against Colon Cancer” (Inorganic Chemistry, 2024).

For orientation: IC50 means the concentration that gives 50% inhibition. A higher IC50 goes with lower potency.

SMILES strings stand for the structures.

One data set has as its target T1, COX-1 (Homo sapiens, UniProt P23219).
T1 construct: a cyclooxygenase activity assay kit starting from Caco-2/TC7 cell lysates was used; endogenous in cells; host or cells: Caco-2/TC7 (human colon carcinoma)
Briefly: Intracellular COX-1 activity, kit on Caco-2/TC7 cell lysates. The conditions noted are these: Caco-2/TC7 cells, 24 h incubation with 20 μM of free ligands, mean ± SEM. It is filed as cell-based. The source says:
(§1) Previous studies have shown that modifications in the structure of the naproxen molecule have led to effective inhibition of COX-2, with a high degree of selectivity compared to the COX-1 isoform.[63],[64] Thus, we have tested the inhibitory activity of the best active compounds [Au(L3)(JohnPhos)] […] For this purpose, a cyclooxygenase activity assay kit starting from Caco-2/TC7 cell lysates was used, aiming to develop a new class of inhibitors that present a balanced COX-1/COX-2 inhibition to control the severe side effects resulting from nonselective COX inhibition. Inhibition of COX enzymes is expressed as the percentage of inhibition relative to control COX-1 or COX-2 activity. […] Complex [Au(L4)(JohnPhos)] […] This fact underscores the importance of the coordination of the metal center to the NSAID derivative, since the presence of the gold center is essential for achieving selectivity toward the COX-2 isoform, similar to what is observed in other gold compounds for different biomolecules.[65],[66]
(§2) The interaction of metal complexes with the enzyme cyclooxygenase was analyzed using a cyclooxygenase (COX) Activity Assay Kit (fluorometric) (AB204699 Abcam Inc. Massachusetts, USA). The procedural guidelines of the supplied kit were followed. The reaction commenced with the introduction of AA.

In a further data set the target is T2, COX-2 (Homo sapiens, UniProt P35354).
T2 construct: a cyclooxygenase activity assay kit starting from Caco-2/TC7 cell lysates was used; endogenous in cells; host or cells: Caco-2/TC7 (human colon carcinoma)
T2 sequence (P35354 18-604): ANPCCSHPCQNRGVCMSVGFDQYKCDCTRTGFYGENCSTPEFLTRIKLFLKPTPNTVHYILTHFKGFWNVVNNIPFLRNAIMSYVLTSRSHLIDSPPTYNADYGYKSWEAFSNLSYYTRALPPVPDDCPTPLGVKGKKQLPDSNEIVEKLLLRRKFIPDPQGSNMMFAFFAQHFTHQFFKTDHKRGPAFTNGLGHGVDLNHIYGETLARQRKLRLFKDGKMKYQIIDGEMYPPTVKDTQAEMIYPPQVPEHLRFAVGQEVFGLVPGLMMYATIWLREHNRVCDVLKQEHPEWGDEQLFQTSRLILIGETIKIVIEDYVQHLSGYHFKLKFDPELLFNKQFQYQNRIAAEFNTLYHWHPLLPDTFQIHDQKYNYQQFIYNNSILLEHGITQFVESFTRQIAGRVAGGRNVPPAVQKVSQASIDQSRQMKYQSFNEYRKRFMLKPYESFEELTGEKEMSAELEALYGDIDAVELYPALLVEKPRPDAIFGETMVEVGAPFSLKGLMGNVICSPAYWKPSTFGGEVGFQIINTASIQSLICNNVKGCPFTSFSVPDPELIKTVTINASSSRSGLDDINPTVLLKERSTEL
Briefly: Intracellular COX-2 activity, kit on Caco-2/TC7 cell lysates. The data set is classed as cell-based. The conditions noted are these: Caco-2/TC7 cells, 24 h incubation with 20 μM of free ligands, mean ± SEM.
Excerpt: as §1, §2

The test system of the next data set is Caco-2/TC7 cells. Briefly: MTT antiproliferative assay on Caco-2/TC7 colon cancer cells. The data set is classed as cell-based, human. As to conditions: 72 h incubation, undifferentiated cells, mean ± SE. The source says: The antiproliferative effect of the reference drug auranofin was included as positive control. […] However, the coordination of the gold-phosphane unit to these ligands derived from NSAIDs leads to much more cytotoxic complexes, as can be observed in Table 1 with IC50 values in the range of that found in auranofin or even lower values for complexes [Au(L1)(CyJohnPhos)] (1a), [Au(L4)(CyJohnPhos)] […] This fact has already been observed previously in related gold complexes with an alkyne ligand derived from naproxen molecule,[43] which makes naproxen an excellent pharmacophore when coordinated to gold(I).
The human Caco-2 cell line (TC7 clone) was kindly provided by Dr. Edith Brot-Laroche (Université Pierre et Marie Curie-Paris 6, UMR S 872, Les Cordeliers, France), Human epithelial fibroblast cells (NHDF-Ad, Lonza, Porriño, Spain) were kindly provided by Dr. Gracia Mendoza (Aragon Health Research Institute, IIS Aragón, Spain). Caco-2 cells (passages 36–48) and fibroblasts (passages 10–20) were maintained in a humidified atmosphere of 5% CO2 at 37 °C in Dulbecco’s Modified Eagles medium (DMEM) (Gibco Invitrogen. Paisley. UK) supplemented with 20% fetal bovine serum, 1% nonessential amino acids, 1% penicillin (1000 U/mL), 1% streptomycin ([…]) and 1% amphotericin (250 U/mL). The Caco-2 cells were subcultured in 25 cm^2 plastic flasks at a density of 3 × 10^5 cells/cm^2, while the fibroblasts were subcultured on 75 cm^2 plastic flasks at a density of 1 × 10^4 cells/cm^2. The culture medium was replaced every 2 days.
The gold complexes were diluted in dimethyl sulfoxide (DMSO) as a 10 mM stock solution and then diluted in a cell culture medium at the desired concentrations. For the cytotoxicity screening assays, Caco-2 cells were seeded in 96-well plates at a density of 4 × 10^3 cells/well. […] The antiproliferative effect was measured using an MTT assay, as previously described by Marmol et al.[93] The absorbance at 540/620 nm was measured using a SPECTROstar Nano (BMG Labtech. Ortenberg. Germany). […]

A short description of data set [1]: Distribution coefficient log D7.4. The data set is classed as physicochemical. The conditions noted are these: pH 7.4. The source says:
Table 1 Distribution Coefficients and IC50 (μM) ^b Values of the Complexes on Caco-2/TC7 Cancer Cells Compared with Auranofin ^a | column: log D7.4

T1 sequence (P23219 24-599): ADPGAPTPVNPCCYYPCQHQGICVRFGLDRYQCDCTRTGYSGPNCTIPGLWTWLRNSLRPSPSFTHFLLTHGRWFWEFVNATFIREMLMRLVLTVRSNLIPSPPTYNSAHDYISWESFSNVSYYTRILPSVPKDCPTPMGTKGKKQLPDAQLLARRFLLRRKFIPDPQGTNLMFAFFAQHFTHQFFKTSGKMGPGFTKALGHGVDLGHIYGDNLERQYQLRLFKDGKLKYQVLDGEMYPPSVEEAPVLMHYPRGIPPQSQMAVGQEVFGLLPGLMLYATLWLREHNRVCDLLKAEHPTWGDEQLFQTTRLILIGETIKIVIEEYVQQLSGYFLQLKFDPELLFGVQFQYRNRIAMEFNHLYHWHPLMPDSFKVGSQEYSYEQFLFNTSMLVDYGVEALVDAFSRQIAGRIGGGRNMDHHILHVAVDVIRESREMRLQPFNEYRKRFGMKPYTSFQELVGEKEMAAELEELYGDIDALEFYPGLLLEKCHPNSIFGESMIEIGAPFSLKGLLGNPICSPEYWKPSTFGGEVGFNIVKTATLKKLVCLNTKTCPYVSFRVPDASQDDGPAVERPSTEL

As to `COC(=O)[C@H](CCSC)NC(=O)C(C)c1ccc(CC(C)C)cc1` (stereo partly drawn) [L2, Methyl (2-(4-Isobutylphenyl)propanoyl)methioninate], the “Percent inhibition of COX-1” value at COX-1 stood at 15.9 ± 7.3%. Also, on COX-2, the “Percent inhibition of COX-2” value is reported as 55.8 ± 8.1%.

`CC#N.CC(C)(C)P(c1ccccc1-c1ccccc1)C(C)(C)C.[Au+].[F][Sb-]([F])([F])([F])([F])[F]` [[Au(MeCN)(JohnPhos)]SbF6, reference compound]: 0.9 ± 0.76 µM corresponded to half-maximal inhibition with Caco-2/TC7 cells (IC50).

As to `CC[PH](CC)(CC)[Au][S][C@@H]1O[C@H](COC(C)=O)[C@@H](OC(C)=O)[C@H](OC(C)=O)[C@H]1OC(C)=O` [Auranofin, reference compound], in the data set with Caco-2/TC7 cells, half-maximal inhibition (IC50) was put at 1.8 ± 0.1 µM. The “log D7.4” value in data set [1] is “–2.53”.

In the case of `COC(=O)C(CCSC)NC(=O)Cc1c(C)n(C(=O)c2ccc(Cl)cc2)c2ccc(OC)cc12` (stereo not drawn) [L3], the “Percent inhibition of COX-1” value on COX-1 is recorded as 22.9 ± 10.7%. The “Percent inhibition of COX-2” value on COX-2 is recorded as 53.6 ± 14.3%.

With `COC(=O)[C@H](CCSC)NC(=O)[C@@H](C)c1ccc2cc(OC)ccc2c1` [L4, Methyl ((S)-2-(6-Methoxynaphthalen-2-yl)propanoyl)methioninate], the “Percent inhibition of COX-1” value at COX-1 worked out at 36.9 ± 7.6%. The “Percent inhibition of COX-2” value at COX-2 is 44.7 ± 13.4%.

`CC#N.[Au+].[F][Sb-]([F])([F])([F])([F])[F].c1ccc(-c2ccccc2P(C2CCCCC2)C2CCCCC2)cc1` [[Au(MeCN)(CyJohnPhos)]SbF6, reference compound]: the concentration for half-maximal inhibition (IC50) in the data set with Caco-2/TC7 cells amounted to 1.24 ± 0.67 µM.

Consider `COC(=O)[C@H](CCSC)NC(=O)c1ccccc1Nc1cccc(C)c1C` [L1, Methyl (2-((2,3-Dimethylphenyl)amino)benzoyl)methioninate], for which the “Percent inhibition of COX-1” value at COX-1 is given as 15.2 ± 5.7%. Moreover, at COX-2, the “Percent inhibition of COX-2” value was 63.1 ± 8.9%.
